pIC50: −log10 of the molar value.

Data set [1] can be described thus: cytotoxicity MTT assay in BE(2)-M17 cells. Type of data set: cell-based, human. The conditions noted are these: human, MTT, 1–100 μM, 24 h. The protocol: Human HMC3 microglial (CRL-3304) and neuroblastoma BE(2)-M17 (CRL-2267) cells were obtained from American Type Culture Collection. BE(2)-M17 develops a better dopaminergic phenotype than SH-SY5Y when treated with retinoic acid to direct neuronal differentiation (Carvajal-Oliveros et al., [2022]). Cells were routinely maintained in Dulbecco's Modified Eagle Medium-Nutrient Mixture F12 (DMEM-F12) supplemented with 10% fetal bovine serum (FBS; Thermo Fisher Scientific, Waltham, MA, USA) in a 37°C incubator, with 95% relative humidity and 5% CO2 (NuAire, Plymouth, MN, USA).
To evaluate cytotoxicity of LM compounds and MPP^+, HMC3 (1 × 10^4) or BE(2)-M17 (2 × 10^4) cells were plated on 96-well dishes, grown for 20 h, and treated with LM compounds (1–100 μM) or MPP^+ [HMC3: 0–8 mM; BE(2)-M17: 0–5 mM]. Next day, 20 μl of tetrazolium dye 3-(4,5-dimethylthiazol-2-yl)-2,5-diphenyltetrazolium bromide (MTT, 5 mg/ml; Sigma-Aldrich) was added to the cells at 37°C for 3 h. The resulted insoluble purple formazan products were dissolved by lysis buffer (composition: 10% Triton X-100, 0.1 N HCl, 18% isopropanol). The absorbance of the dissolved product at optical density (OD) 570 nm was read by using a FLx800 fluorescence microplate spectrophotometer (Bio-Tek, Winooski, VT, USA). The half maximal inhibitory concentration (IC50) of LM compounds was determined through the construction of a dose-response curve. MPP^+ at 4 mM (HMC3 cell viability: 65%−69%) or 0.62 mM [BE(2)-M17 cell viability: 79%−84%] was selected to induce inflammation for further experiments.

The nature of data set [2]: oxygen radical antioxidant capacity (OxiSelect kit). Particulars: at 4–100 μM concentration. Here is the method: The test of oxygen radical antioxidant capacity (Ou et al., [2001]) was performed using OxiSelect™ kit (Cell Biolabs, San Diego, CA, USA). Briefly, trolox standards (2.5–50 μM) and LM compounds (4–100 μM) were prepared using a serial dilution in a mixture containing 50% acetone and 50% water. After adding fluorescein to blank (50% acetone/50% water), standards, or samples, the mixture was mixed and incubated at 37°C for 30 min. Subsequently, free radical initiator 2,2′-azobis(2-methylpropionamidine) dihydrochloride (AAPH) was added to generate peroxyl radicals (ROO•). The quenching of fluorescent probe over time was recorded at 480 nm excitation and 520 nm emission for 60 min (Bio-Tek FLx800). To quantify the oxygen radical absorbance capacity, the area under the curve (AUC) for blank, standard and samples were calculated. After subtraction of the blank, trolox equivalent (μM) of samples were determined using a calibration curve with trolox standards.

A further data set relates to GCLC. In words: Western blot GCLC in MPP^+-treated BE(2)-M17 cells. Particulars: BE(2)-M17, compound 10 μM + 0.62 mM MPP^+; MPP^+ alone 86%; untreated = 100%. Type of data set: cell-based, human. Here is the method:
(§1) HMC3 (2 × 10^5/6-well) or BE(2)-M17 (4 × 10^5/6-well) cells were lysed in buffer (composition: 50 mM Tris-HCl pH8.0, 2 mM EDTA pH8.0, 150 mM NaCl, 0.5% sodium deoxycholate, 0.1% SDS, 50 mM NaF, 1% NP40) containing the protease and/or phosphatase inhibitor cocktail (Sigma-Aldrich). After sonication, the lysates were centrifuged (12,000 × g for 10 min at 4°C) and protein concentrations determined (Bradford protein assay; Bio-Rad, Hercules, CA, USA). Aliquots of protein (20 μg) were separated by electrophoresis using 10%−12% SDS–polyacrylamide gel followed by transfer to a polyvinylidene fluoride (PVDF) membrane. After being blocked, the PVDF membrane was stained with NLRP3 (#15101s), caspase-1 (CASP1; #3866s), iNOS (#20609), IL-1β (#12242), CREB (#9192), BCL2-associated X (BAX; #2772; 1:1,000; Cell Signaling), IL-6 (#ab6672), TNF-α (#ab9739), GCLC (#ab41463), BDNF (#ab108319; 1:1,000; Abcam, Cambridge, UK), NLRP1 (#NBP-1-54899; 1:500; Novus Biologicals, Centennial, CO, USA), NRF2 (#ABE413), NQO1 (#N5288), p-CREB (Ser133; #06-519; 1:1,000; Sigma-Aldrich), PGC-1α (#GTX37356; 1:1,000; GeneTex, Irvine, CA, USA), B-cell lymphoma 2 (BCL2; #IR94-392; 1:1,000; iReal Biotechnology, New Taipei City, Taiwan), or glyceraldehyde-3-phosphate dehydrogenase (GAPDH; #30000002; 1:1,000; MDBio, Taipei, Taiwan) primary antibody at room temperature 2 h or 4°C overnight. The immune complexes were detected using horseradish peroxidase (HRP)-conjugated goat anti-mouse or goat anti-rabbit IgG antibody (1:5,000; GeneTex) and chemiluminescent HRP substrate (Millipore, Burlington, MA, USA). Immunoreactive bands were captured (ImageQuant™ LAS 4000, GE Healthcare, Chicago, IL, USA) and quantified (Multi Gauge V3.0 software, Fujifilm, Tokyo, Japan).
(In general: A western blot detects proteins with antibodies after separation by electrophoresis.)

In a further data set the test system is PGC-1α. As to the kind of experiment: Western blot PGC-1α in MPP^+-treated BE(2)-M17 cells. Particulars: BE(2)-M17, compound 10 μM + 0.62 mM MPP^+; MPP^+ alone 75%; untreated = 100%. Type of data set: cell-based, human. The protocol: as §1
In the next data set the test system is BE(2)-M17 cells. As to the kind of experiment: high-content analysis of neurite outgrowth in MPP^+-treated BE(2)-M17 cells. Type of data set: cell-based, human. Particulars: for neurite length: MPP^+ alone 24.2 μm. The protocol: For automated neuronal morphology analysis, BE(2)-M17 cells were seeded in 24-well plate (5 × 10^4/well) and treated with retinoic acid, LM compounds (10 μM), and MPP^+ as described. On day 7, after being fixed and permeated, cells were stained with TUBB3 (neuronal class III β-tubulin) antibody (#802001; 1:1,000; BioLegend, San Diago, CA, USA) at 4°C overnight, followed by Alexa Fluor 555-donkey anti-rabbit (#A-31572) antibody (1:1,000; Thermo Fisher Scientific) at room temperature for 2 h. TUBB3 is a β-tubulin isoform constitutively expressed in neurons and important for maintaining further neurite elongation (Ferreira and Caceres, [1992]). After nuclei staining with DAPI, neuronal images were captured at 531 nm excitation and 593 nm emission wavelengths (ImageXpress Micro Confocal; Molecular Devices). Microscopic images were segmented with multi-colored mask to assign each outgrowth to a cell body for quantification of neurite outgrowth. Neurite total length (μm) and numbers of primary neurites originated from neuronal cell body (process) and secondary neurites extended from primary neurites (branch) were analyzed (Neurite Outgrowth Application Module; Molecular Devices). For each sample, around 3,000 cells were analyzed in each of three independent experiments.

[3] abbreviates: BE(2)-M17, compound 10 μM + 0.62 mM MPP^+, MPP^+ alone 2.6.
Where [4] appears, read: BE(2)-M17, compound 10 μM + 0.62 mM MPP^+.

Broadly, the IC50 is the concentration at which inhibition is half-maximal. Lower therefore signals higher potency. `Cc1ccc(/C=C/C(=O)c2c(O)c3ccccc3oc2=O)cc1` [LM-016] yielded an IC50 at 24 h in data set [1] (BE(2)-M17 neuroblastoma cells) above 100 µM. Moreover, the “oxygen radical antioxidant capacity, trolox equivalent” value (shortened to “oxygen radical antioxidant capacity”) in data set [2] lay within 0 to 10 µM. The GCLC level in the data set with GCLC is reported as 99–106%. For the same compound, the PGC-1α level with PGC-1α was 98–109%.

As usually defined, the pIC50 is the IC50 on a negative log10 scale, so that one unit is a factor of ten. Lower therefore signals a large IC50. `CN(C)c1ccc(/C=C/C(=O)c2c(O)c3ccccc3oc2=O)cc1` [LM-021, (E)-3-(3-(4-(dimethylamino)phenyl)acryloyl)-4-hydroxy-2H-chromen-2-one] showed a pIC50 in data set [1] below 4.00. Moreover, the “oxygen radical antioxidant capacity” value in data set [2] lay within 2 to 36 µM. In addition, the number of process in the data set on BE(2)-M17 cells (setting [3]) is given as 2.8–3.0. The neurite length in the data set with BE(2)-M17 cells (setting [4]) is recorded as 26.2–27.2 μm. In addition, the GCLC level in the data set on GCLC is recorded as 99–106%. Moreover, the PGC-1α level with PGC-1α was 98–109%.

Regarding `O=C(/C=C/c1ccccc1O)c1c(O)c2ccccc2oc1=O` [LM-036], in data set [1], the pIC50 is below 4.00. Moreover, the “oxygen radical antioxidant capacity” value in data set [2] lay within 15 to 40 µM. The number of process with BE(2)-M17 cells (setting [3]) is on record as 2.8–3.0. Moreover, in the data set on BE(2)-M17 cells (setting [4]), the neurite length is recorded as 26.2–27.2 μm. For the same compound, in the data set on GCLC, the GCLC level is given as 99–106%. Further, in the data set on PGC-1α, the PGC-1α level was 98–109%.

`C[n+]1ccc(-c2ccccc2)cc1` [MPP^+, 1-methyl-4-phenyl pyridinium, reference compound] showed a number of branch in the data set on BE(2)-M17 cells (BE(2)-M17, 0.62 mM MPP^+ alone, untreated 1.2, not significant) of 1.1. In the data set with BE(2)-M17 cells (BE(2)-M17, 0.62 mM MPP^+ alone, untreated 2.9), this compound yielded a number of process of 2.6. Also, the “total length of neurite” value with BE(2)-M17 cells (BE(2)-M17, 0.62 mM MPP^+ alone, untreated 26.0 μm) is 24.2 μm.

Source of the values: PMC11473416, “Coumarin-chalcone derivatives as dual NLRP1 and NLRP3 inflammasome inhibitors targeting oxidative stress and inflammation in neurotoxin-induced HMC3 and BE(2)-M17 cell models of Parkinson's disease” (Frontiers in Aging Neuroscience, 2024).
